# Source: ChEMBL document CHEMBL4229379, “Synthesis and structure-activity relationship of novel bisindole amidines active against MDR Gram-positive and Gram-negative bacteria” (Eur J Med Chem, 2018)
# Columns and labels:
# [1] = tested on: Staphylococcus aureus; experiment: Antibacterial activity against methicillin-sensitive Staphylococcus aureus 12-28 after 18 hrs by CLSI broth microdilution method; assay type: functional; conditions: 12-28, 18 h
# [2] = tested on: Acinetobacter calcoaceticus; experiment: Antibacterial activity against Acinetobacter calcoaceticus ATCC 19606 after 18 hrs by CLSI broth microdilution method; assay type: functional; conditions: ATCC 19606, 18 h
# [3] = tested on: Escherichia coli; experiment: Antibacterial activity against extended-spectrum beta-lactamase deficient Escherichia coli 1515 after 18 hrs by CLSI broth microdilution method; assay type: functional; conditions: Escherichia coli, 1515, 18 h
# [4] = tested on: Pseudomonas aeruginosa; experiment: Antibacterial activity against Pseudomonas aeruginosa PAO1 after 18 hrs by CLSI broth microdilution method; assay type: functional; conditions: PAO1, 18 h
# [5] = tested on: Staphylococcus aureus; experiment: Antibacterial activity against methicillin-resistant Staphylococcus aureus ATCC 33591 after 18 hrs by CLSI broth microdilution method; assay type: functional; conditions: ATCC 33591, 18 h
# [6] = tested on: Staphylococcus aureus; experiment: Antibacterial activity against methicillin-sensitive Staphylococcus aureus ATCC 29213 after 18 hrs by CLSI broth microdilution method; assay type: functional; conditions: ATCC 29213, 18 h
# [7] = tested on: Klebsiella pneumoniae; experiment: Antibacterial activity against extended-spectrum beta-lactamase deficient Klebsiella pneumoniae 7 after 18 hrs by CLSI broth microdilution method; assay type: functional; conditions: Klebsiella pneumoniae, 7, 18 h
# [8] = tested on: Providencia rettgeri; experiment: Antibacterial activity against Providencia rettgeri ATCC 31052 after 18 hrs by CLSI broth microdilution method; assay type: functional; conditions: ATCC 31052, 18 h
# [9] = tested on: Klebsiella pneumoniae; experiment: Antibacterial activity against new delhi metallo-beta-lactamase-1 harboring Klebsiella pneumoniae ATCC BAA-2146 after 18 hrs by CLSI broth microdilution method; assay type: functional; conditions: ATCC BAA-2146, 18 h
# [10] = tested on: Staphylococcus epidermidis; experiment: Antibacterial activity against methicillin-sensitive Staphylococcus epidermidis ATCC 12228 after 18 hrs by CLSI broth microdilution method; assay type: functional; conditions: ATCC 12228, 18 h
# [11] = tested on: Enterococcus faecalis; experiment: Antibacterial activity against vancomycin-resistant Enterococcus faecalis 09-9 after 18 hrs by CLSI broth microdilution method; assay type: functional; conditions: 09-9, 18 h
# [12] = tested on: Citrobacter freundii; experiment: Antibacterial activity against Citrobacter freundii ATCC 43864 after 18 hrs by CLSI broth microdilution method; assay type: functional; conditions: ATCC 43864, 18 h
# [13] = tested on: Pseudomonas aeruginosa; experiment: Antibacterial activity against Pseudomonas aeruginosa 12-16 after 18 hrs by CLSI broth microdilution method; assay type: functional; conditions: 12-16, 18 h
# [14] = tested on: Serratia marcescens; experiment: Antibacterial activity against Serratia marcescens ATCC 21074 after 18 hrs by CLSI broth microdilution method; assay type: functional; conditions: ATCC 21074, 18 h
# [15] = tested on: Staphylococcus aureus; experiment: Potency index, ratio of levofloxacin MIC to compound MIC for methicillin-resistant Staphylococcus aureus ATCC 33591; assay type: functional
# [16] = tested on: Proteus mirabilis; experiment: Antibacterial activity against Proteus mirabilis 12-6 after 18 hrs by CLSI broth microdilution method; assay type: functional; conditions: 12-6, 18 h
# [17] = tested on: Enterococcus faecium; experiment: Antibacterial activity against vancomycin-sensitive Enterococcus faecium 12-3 after 18 hrs by CLSI broth microdilution method; assay type: functional; conditions: 12-3, 18 h
# [18] = tested on: Enterococcus faecalis; experiment: Potency index, ratio of levofloxacin MIC to compound MIC for vancomycin-resistant Enterococcus faecalis 09-9; assay type: functional
# [19] = tested on: Enterococcus faecium; experiment: Potency index, ratio of levofloxacin MIC to compound MIC for vancomycin-resistant Enterococcus faecium ATCC 700221; assay type: functional
# [20] = tested on: Enterobacter cloacae; experiment: Antibacterial activity against Enterobacter cloacae ATCC 43560 after 18 hrs by CLSI broth microdilution method; assay type: functional; conditions: ATCC 43560, 18 h
# [21] = tested on: Escherichia coli; experiment: Antibacterial activity against extended-spectrum beta-lactamase harboring Escherichia coli 12-15 after 18 hrs by CLSI broth microdilution method; assay type: functional; conditions: 12-15, 18 h
# [22] = tested on: Staphylococcus aureus; experiment: Antibacterial activity against methicillin-sensitive Staphylococcus aureus 15 after 18 hrs by CLSI broth microdilution method; assay type: functional; conditions: Staphylococcus aureus, 15, 18 h
# [23] = tested on: Enterococcus faecalis; experiment: Antibacterial activity against vancomycin-sensitive Enterococcus faecalis 12-5 after 18 hrs by CLSI broth microdilution method; assay type: functional; conditions: 12-5, 18 h
# [24] = tested on: Klebsiella aerogenes; experiment: Antibacterial activity against Enterobacter aerogenes ATCC 13048 after 18 hrs by CLSI broth microdilution method; assay type: functional; conditions: ATCC 13048, 18 h
# [25] = Cytotoxicity against HEK293T cells assessed as reduction in cell viability after 48 hrs by MTS assay; assay type: cell-based, HEK-293T; conditions: human
# [26] = tested on: Staphylococcus aureus; experiment: Antibacterial activity against methicillin-resistant Staphylococcus aureus 12-33 after 18 hrs by CLSI broth microdilution method; assay type: functional; conditions: 12-33, 18 h
# [27] = tested on: Enterococcus faecium; experiment: Potency index, ratio of levofloxacin MIC to compound MIC for vancomycin-resistant Enterococcus faecium 12-1; assay type: functional
# [28] = tested on: Escherichia coli; experiment: Antibacterial activity against extended-spectrum beta-lactamase deficient Escherichia coli 12-14 after 18 hrs by CLSI broth microdilution method; assay type: functional; conditions: 12-14, 18 h
# [29] = tested on: Enterococcus faecalis; experiment: Antibacterial activity against vancomycin-resistant Enterococcus faecalis ATCC 51299 after 18 hrs by CLSI broth microdilution method; assay type: functional; conditions: ATCC 51299, 18 h
# [30] = tested on: Staphylococcus epidermidis; experiment: Antibacterial activity against methicillin-sensitive Staphylococcus epidermidis 12-6 after 18 hrs by CLSI broth microdilution method; assay type: functional; conditions: 12-6, 18 h
# [31] = tested on: Enterococcus faecium; experiment: Antibacterial activity against vancomycin-resistant Enterococcus faecium 12-1 after 18 hrs by CLSI broth microdilution method; assay type: functional; conditions: 12-1, 18 h
# [32] = tested on: Pseudomonas aeruginosa; experiment: Antibacterial activity against Pseudomonas aeruginosa ATCC 27853 after 18 hrs by CLSI broth microdilution method; assay type: functional; conditions: ATCC 27853, 18 h
# [33] = tested on: Enterococcus faecalis; experiment: Potency index, ratio of levofloxacin MIC to compound MIC for vancomycin-resistant Enterococcus faecalis ATCC 51299; assay type: functional
# [34] = tested on: Stenotrophomonas maltophilia; experiment: Antibacterial activity against Stenotrophomonas maltophilia ATCC 13636 after 18 hrs by CLSI broth microdilution method; assay type: functional; conditions: ATCC 13636, 18 h
# [35] = tested on: Proteus vulgaris; experiment: Antibacterial activity against Proteus vulgaris ATCC 29905 after 18 hrs by CLSI broth microdilution method; assay type: functional; conditions: ATCC 29905, 18 h
# [36] = tested on: Klebsiella pneumoniae; experiment: Antibacterial activity against extended-spectrum beta-lactamase harboring Klebsiella pneumoniae 12-8 after 18 hrs by CLSI broth microdilution method; assay type: functional; conditions: 12-8, 18 h
# [37] = tested on: Enterococcus faecium; experiment: Antibacterial activity against vancomycin-resistant Enterococcus faecium ATCC 700221 after 18 hrs by CLSI broth microdilution method; assay type: functional; conditions: ATCC 700221, 18 h
# [38] = tested on: Escherichia coli; experiment: Antibacterial activity against extended-spectrum beta-lactamase deficient Escherichia coli ATCC 25922 after 18 hrs by CLSI broth microdilution method; assay type: functional; conditions: ATCC 25922, 18 h
# [39] = tested on: Staphylococcus epidermidis; experiment: Antibacterial activity against methicillin-resistant Staphylococcus epidermidis 12-8 after 18 hrs by CLSI broth microdilution method; assay type: functional; conditions: 12-8, 18 h
# [40] = tested on: Klebsiella pneumoniae; experiment: Antibacterial activity against extended-spectrum beta-lactamase deficient Klebsiella pneumoniae 12-4 after 18 hrs by CLSI broth microdilution method; assay type: functional; conditions: 12-4, 18 h
# [41] = tested on: Klebsiella pneumoniae; experiment: Antibacterial activity against extended-spectrum beta-lactamase harboring Klebsiella pneumoniae ATCC 700603 after 18 hrs by CLSI broth microdilution method; assay type: functional; conditions: Klebsiella pneumoniae, 700603, 18 h
# [42] = tested on: Enterococcus faecalis; experiment: Antibacterial activity against vancomycin-sensitive Enterococcus faecalis ATCC 29212 after 18 hrs by CLSI broth microdilution method; assay type: functional; conditions: ATCC 29212, 18 h
# [43] = tested on: Staphylococcus aureus; experiment: Potency index, ratio of levofloxacin MIC to compound MIC for methicillin-resistant Staphylococcus aureus 12-33; assay type: functional
smiles,measurement,setting,value
N=C(c1ccc2cc(-c3ccc(-c4cc5ccc(C(=N)N6CCC(N7CCCC7)CC6)cc5[nH]4)cc3)[nH]c2c1)N1CCC(N2CCCC2)CC1,MIC,[1],8 µg/mL
same,MIC,[2],> 128 µg/mL
same,MIC,[3],16 µg/mL
same,MIC,[4],128 µg/mL
same,MIC,[5],8 µg/mL
same,MIC,[6],8 µg/mL
same,MIC,[7],16 µg/mL
same,MIC,[8],128 µg/mL
same,MIC,[9],32 µg/mL
same,MIC,[10],4 µg/mL
same,MIC,[11],16 µg/mL
same,MIC,[12],16 µg/mL
same,MIC,[13],128 µg/mL
same,MIC,[14],> 128 µg/mL
same,Ratio,[15],4 - 128
same,MIC,[16],> 128 µg/mL
same,MIC,[17],16 µg/mL
same,Ratio,[18],4 - 512
same,Ratio,[19],4 - 512
same,MIC,[20],16 µg/mL
same,MIC,[21],16 µg/mL
same,MIC,[22],8 µg/mL
same,MIC,[23],64 µg/mL
same,MIC,[24],16 µg/mL
same,CC50 at 48 h,[25],50 µg/mL
same,MIC,[26],8 µg/mL
same,Ratio,[27],4 - 512
same,MIC,[28],16 µg/mL
same,MIC,[29],32 µg/mL
same,MIC,[30],8 µg/mL
same,MIC,[31],16 µg/mL
same,MIC,[32],16 µg/mL
same,Ratio,[33],4 - 512
same,MIC,[34],128 µg/mL
same,MIC,[35],128 µg/mL
same,MIC,[36],16 µg/mL
same,MIC,[37],16 µg/mL
same,MIC,[38],8 µg/mL
same,MIC,[39],8 µg/mL
same,MIC,[40],16 µg/mL
same,MIC,[41],64 µg/mL
same,MIC,[42],16 µg/mL
same,Ratio,[43],4 - 128
